“Also recorded” adds a separate entry of the source. Read-outs that look alike come from different tables or passages of the source.
Experiments:
IFN-γ and IL-4 mRNA = assay: Cytokine gene expression on CD4+ spleen cells by real-time RT-PCR; type: in vivo, mice; settings: prophylactic and therapeutic treatment
Procedure: (§1) BM-transplanted mice, generated as described in detail in the legend to FIG. 1, were infected intranasally with 2×10^7 Aspergillus conidia and treated with 1 mg/kg PTX3 intraperitoneally both before infection (oblique line bars) and from the day of infection and continuing for another 3 days (dotted bars). At 3 days after infection, IL-12 p70 and IL-10 levels were determined by specific ELISA analyses in bronchoalveolar lavage fluids (A), the number of CD4^+ T spleen cells producing cytokines were numbered by ELISPOT analysis (B) and the gene expression of cytokine on CD4^+ spleen cells was determined by real-time PCR. Bars indicate standard errors. *P<0.05, infected vs. non-infected mice; **P<0.05, PTX3-treated vs untreated mice. Non-infected mice (white bars); infected mice (black bars).
Total RNA (5 μg, extracted from CD4^+ T spleen cells using the RNeasy Mini Kit (QIAGEN S.p.A., Milan, Italy)) was retrotranscribed with Sensiscript reverse transcriptase (QIAGEN) according to the manufacturer's indications. The primers for PCR were obtained from Applied Biosystems (Foster City, Calif.). […] The data normalised with RNA 18S were expressed as relative mRNA of the cytokines examined (ΔΔCt) and compared with those of naive mice (10).

A. fumigatus [1] = assay: In-vitro direct killing activity on the fungus; type: cell-based; settings: data not shown
A. fumigatus [2] = assay: Lung histology (periodic acid Schiff) in mice with invasive aspergillosis; type: in vivo; settings: 1 mg/kg i.p. from day of infection and for another 5 days; 6 days after infection
Procedure: Periodic Schiff base sections were prepared from the lungs of the BM-transplanted mice infected with Aspergillus conidia either untreated (A) or treated (B) with 1 mg/kg PTX3 intraperitoneally from the day of infection and continuing for another 5 days. Numerous Aspergillus hyphae (arrows) infiltrate the pulmonary parenchyma, with extensive parenchymal destruction and strong signs of damage to the bronchial wall, and necrosis and poor cell recruitment are observed in the lungs of the untreated mice ([…]). […] Enlargement, ×100 in panels A and B; ×400 in insets.
(§2) The A. fumigatus strain was supplied by a fatal case of pulmonary aspergillosis at the Institute for Infectious Diseases of the University of Perugia (13). […] For reinfection, the mice surviving the primary intranasal (i.n.) infection were inoculated with 5×10^5 of Aspergillus conidia i.v. The fungal load in the lungs, brain and kidneys of the infected mice was quantified by serial plating on Sabouraud dextrose medium and the results (mean±SE) were expressed as colony forming units (CFU) in samples taken from the organs indicated. For selected experiments, the fungal growth was also evaluated by chitin analysis (10). […]

Aspergillus conidia [3] = assay: Resistance to Aspergillus reinfection (i.v.) in cured BM-transplanted mice; type: in vivo; settings: PTX3 concomitantly with primary infection; i.v. reinfection two weeks later; CFU 3 days after reinfection
Source text: FIG. 2 illustrates the effect of the administration of PTX3 on resistance to Aspergillus reinfection. BM-transplanted mice, generated as described in detail in the legend to FIG. 1, were infected intranasally with 2×10^7 Aspergillus conidia one week after the BM transplant and treated concomitantly with PTX3 at the doses and via the administration routes indicated, starting on the day of infection and continuing for the next 5 days. Two weeks after the infection the surviving mice were reinfected intravenously with 5×10^5 Aspergillus conidia. The fungal growth (CFU) in the kidneys was evaluated 3 days after reinfection. * Indicates P<0.05 (treated vs. untreated mice).
as §2

[4] = tested on: CD4+, CD8+, Gr-1+, F4-80+ cells; assay: Cell recovery by FACS analysis of lung and spleen cells and blood leukocyte count in mice with invasive aspergillosis; type: in vivo
Procedure: BM-transplanted mice, generated as described in detail in the legend to FIG. 1, were infected intranasally with 2×10^7 Aspergillus conidia and treated (+) or untreated (−) with 1 mg/kg PTX3 intraperitoneally from the day of infection and continuing for another 5 days. The numbers refer to the percentage of positive cells, reported by the FACS analysis in the lungs (A) and in the spleen (B), 3 or 6 days after infection.
The phenotype of the various cell types was assessed using murine antibodies against the antigens indicated with rat anti-mouse antibodies conjugated with FITC from PharMingen (San Diego, Calif.). Prior to immunochemical identification, the FcR was saturated by incubation of the cells with 5% normal serum. Histotype antibodies were used as controls. The analysis was done by means of FACScan (Becton Dickinson, Mountain View, Calif.). The data obtained were evaluated as percentage of positive cells. The histograms are representative of one of four independent experiments.

A. fumigatus [5] = type: in vivo, mice
Procedure: Lethally irradiated C3H/HeJ mice were infused with T-cell-depleted BM cells of BALB/c mice (2×10^6) one week before intra-nasal infection with 2×10^7 Aspergillus conidia. The mice were treated with PTX3 or with the polyenes, at the doses and via the routes indicated, 5 days before (Pre-) or after (Post-) or concomitantly with infection (Con.), in each case repeating the administration for the next 5 days. Resistance to the infection was assessed as percentage survival. The fungal load in the lungs, brains and kidneys of the infected mice was quantified by serial plating on the Sabouraud dextrose medium of the lavages of the various organs and the results were expressed as colony forming units (CFU) (mean±SE) in samples taken from the organs indicated and performed at the time of death for the mice that died […] or otherwise at 6 days after infection. The groups consisted of 6 animals.
BM-transplanted mice, generated as described in detail in the legend to FIG. 1, were infected intranasally with 2×10^7 Aspergillus conidia and treated intraperitoneally with each single agent alone or in combination, before (Pre-) or after (Post-) infection. The doses were: 0.04 and 0.2 mg/kg PTX3 before or after infection, respectively; 1 mg/kg AmBisome and 2 mg/kg Fungizone.
Bone marrow (BM) cells from BALB/c donor mice were prepared by differential agglutination with soy agglutinin.
The A. fumigatus strain was supplied by a fatal case of pulmonary aspergillosis at the Institute for Infectious Diseases of the University of Perugia (13). For infection, the mice were lightly anaesthetised by means of the inhalation of ethyl ether prior to the instillation of a suspension of 2×10^7 conidia/20 μL saline solution, which was delivered slowly through the nostrils using a micropipette with a sterile disposable tip. This procedure was repeated for 3 consecutive days. For reinfection, the mice surviving the primary intranasal (i.n.) infection were inoculated with 5×10^5 of Aspergillus conidia i.v. The fungal load in the lungs, brain and kidneys of the infected mice was quantified by serial plating on Sabouraud dextrose medium and the results (mean±SE) were expressed as colony forming units (CFU) in samples taken from the organs indicated. For selected experiments, the fungal growth was also evaluated by chitin analysis (10). For the histological analysis, the lung was removed and immediately fixed in formalin. Sections (3 to 4 μm) of tissues embedded in paraffin were stained with the periodic acid Schiff base procedure (13, 20).
PTX3 (SIGMA-Tau, Pomezia, Rome, Italy) was purified by immunoaffinity chromatography from the culture supernatants of CHO cells CHO transfected with PTX3 and monitored for the absence of endotoxins (20). PTX3, amphotericin B deoxycholate (D-AmB, Fungizone, Bristol-Myers Squibb, Sermoneta, Italy) and liposomal amphotericin B (L-AmB, AmBisome, GILEAD, Milan, Italy) were diluted to the desired concentrations in sterile saline solution (PTX3) or in a 5% glucose-water solution.

Aspergillus conidia [6] = assay: Conidia-killing activity of effector phagocytes from treated mice; type: in vivo; settings: treated vs untreated mice; data not shown
[7] = PTX3 levels in bronchoalveolar lavage fluids after i.n. administration; type: in vivo, mice; settings: 0.5 mg/kg i.n.
Procedure: To assess whether PTX3 may have a beneficial effect in otherwise susceptible mice, we used BM-transplanted mice whose substantial susceptibility to IA is well documented (15). The mice were subjected to treatments with different doses of PTX3 administered intranasally or intraperitoneally, before, concomitantly with or after infection. The doses were selected on the basis of preliminary experiments showing that PTX3 levels (at the dose of 0.5 mg/kg/i.n.) were high in bronchoalveolar lavage fluids for at least 24 h (from 70 to 25 ng/ml from 2 to 24 h) and that they were higher than those observed in mice with IA one day after infection (from 2 to 15 ng/ml) (20 and unpublished data). The survival parameters and fungal load in the lung and brain were then recorded and analysed in comparison with those obtained in mice treated with different doses of AmBisome or Fungizone. […] A dose-dependent effect was detected for this administration period, in that the protective efficacy of PTX3 was lost at the dose of 0.04 mg/kg. […] No difference was observed between the two administration routes. […] These characteristics were not observed in the mice treated with PTX3, the lungs of which were characterised by healing infiltrates of poly- and mononuclear inflammatory cells with no evidence of fungal growth or destruction of the bronchial wall (FIG. 3B).

[8] = tested on: IL-12 p70, IL-10, TNF-α, IFN-γ, IL-4; assay: Cytokine levels (ELISA) and cytokine-producing CD4+ T spleen cells (ELISPOT) in mice with invasive aspergillosis; type: in vivo
Procedure: as §1
BM-transplanted mice, generated as described in detail in the legend to FIG. 1, were infected intranasally with 2×10^7 Aspergillus conidia and treated intraperitoneally with each individual agent alone or in combination after infection. The dosages were as described in detail in the legend to FIG. 6. […] levels (pg/ml) were determined in bronchoaleveolar lavage fluids 3 days after infection (A) and IFN-γ and IL-4 levels (pg/ml) in the culture supernatants of the antigen-activated spleen cells (B) performed at the time of death for those mice that died before, or otherwise at 6 days after infection. Bars indicate standard errors. (−, untreated mice). *P<0.05 treated vs. untreated mice; **P<0.05, combination treatment with PTX3+Fungizone (D-AmB) vs D-AmB alone; ***P<0.05, combination treatment with PTX3+AmBisome (L-AmB) vs each single treatment alone.
The levels of cytokines in the bronchoalveolar lavage fluids and in the supernatants of the cultures of spleen cells stimulated with Aspergillus (9, 10), thermally […], were determined using the ELISA Kit (R&D Systems, Inc. Space Import-Export srl, Milan Italy). The detection limits of the analyses (pg/ml) were <16 for IL-12 p70, <32 for TNF-α, <10 for IFN-γ and <3 for IL-4 and IL-10. For the numbering of the CD4^+ T cells producing cytokines, ELISPOT analysis was used on purified CD4^+ T spleen cells (9, 10). The results were expressed as the mean number of cells producing cytokines (±SE) per 10^5 cells, calculated using replicates of the serial cell dilutions.

[9] = 1 mg/kg i.p., 3 days after infection, vs untreated control

## PTX3: long pentraxin PTX3 purified by immunoaffinity chromatography from culture supernatants of CHO cells transfected with PTX3
IFN-γ and IL-4 mRNA
  expression of IFN-γ mRNA: significantly increased
  expression of IL-4 mRNA: reduced
A. fumigatus [1]
  direct killing activity on the fungus: ruled out any direct killing activity
A. fumigatus [2]
  lung pathology: no evidence of parenchymal destruction or fungal growth; also recorded: improved
Aspergillus conidia [3]
  fungal growth in the kidneys of reinfected mice: reduced
[4]; 1 mg/kg i.p., FACS
  numbers of CD4+ cells, CD8+ cells and Gr-1+ neutrophils in the lungs: significantly increased
  recovery of neutrophils and, partly, of CD4+ T cells in the spleens: observed
[4]; blood leukocytes, data not shown
  absolute number of circulating neutrophils: increased significantly
[4]; with or without PTX3 treatment
  number of F4-80+ cells of the lungs or spleens: No difference
A. fumigatus [5]; PTX3 administered after infection
  survival: increased the survival of the mice only at the higher dose
A. fumigatus [5]; PTX3 administered prophylactically, any of the doses assayed
  survival: ≥ 60 days
A. fumigatus [5]; after infection, both doses
  fungal load in the lung: significantly reduced
A. fumigatus [5]; after infection, higher dose
  fungal load in the brain: significantly reduced
A. fumigatus [5]; concomitantly with infection, 0.04 mg/kg
  protective efficacy: lost
A. fumigatus [5]; prophylactic, particularly at highest dose (1 mg/kg), vs untreated
  fungal load in the lungs and brain: significantly reduced
Aspergillus conidia [6]
  conidia-killing activity of the effector phagocytes: higher
[7]
  time PTX3 levels were high in bronchoalveolar lavage fluids: at least 24 h
[8]; [9]
  increase of IL-12 production: approximately 4 fold
  production of IL-10: halved
[8]; ELISPOT
  frequency of CD4+ Th1 cells in the spleen: increased
  frequency of cells producing IL-4 in the spleen: reduced
[8]; antigen-stimulated spleen cell supernatants, suboptimal doses
  production of IL-4 by spleen cells: greatly reduced
[8]; lungs of infected mice treated with PTX3
  production of TNF-α: not increased

From patent US8778389B2, “Medicament for the treatment of fungal infections particularly aspergillosis” (Sigma-Tau Industrie Farmaceutiche Riunite S.p.A., priority 2004, dated 2014)
